The record followed here is ChEMBL document CHEMBL4390659, “Molecular hybridization approach for phenothiazine incorporated 1,2,3-triazole hybrids as promising antimicrobial agents: Design, synthesis, molecular docking and in silico ADME studies” (Eur J Med Chem, 2019).

Data set [1] has as its system Mycobacterium tuberculosis. The data set can be described thus: Antibacterial activity against Mycobacterium tuberculosis H37Rv infected in Swiss albino mouse assessed as log reduction in bacterial burden in lungs at 26 mg/kg, po administered via gavage starting from 6 weeks post infection measured after 3 to 4 weeks co-treated with isoniazid. It counts as functional.

Data set [2] has as its system Mycobacterium tuberculosis. The data set can be described thus: Antibacterial activity against Mycobacterium tuberculosis H37Rv infected in Swiss albino mouse assessed as log reduction in bacterial burden in spleen at 26 mg/kg, po administered via gavage starting from 6 weeks post infection measured after 3 to 4 weeks co-treated with isoniazid. It is filed as functional.

The test system of data set [3] is Mycobacterium tuberculosis. The data set can be described thus: Antibacterial activity against Mycobacterium tuberculosis H37Rv infected in Swiss albino mouse assessed as log reduction in bacterial burden in spleen at 26 mg/kg, po administered via gavage starting from 6 weeks post infection measured after 3 to 4 weeks co-treated with rifampicin. It counts as functional.

The test system of data set [4] is Mycobacterium tuberculosis. Kind of data set: Antibacterial activity against Mycobacterium tuberculosis H37Rv infected in Swiss albino mouse assessed as log reduction in bacterial burden in lungs at 26 mg/kg, po administered via gavage starting from 6 weeks post infection measured after 3 to 4 weeks co-treated with rifampicin. It counts as functional.
Data set [5] has as its system Mycobacterium tuberculosis. Kind of data set: Antibacterial activity against Mycobacterium tuberculosis H37Rv ATCC 27294 assessed as reduction in mycobacterial growth incubated for 5 days by MABA method. It counts as functional. To be noted: H37Rv ATCC 27294, 120 h. In general terms: Resazurin is reduced to fluorescent resorufin, in cell work by metabolically active cells.

Data set [6] deals with Mycobacterium tuberculosis. The data set can be described thus: Potency index, ratio of pyrazinamide MIC to test compound MIC against Mycobacterium tuberculosis H37Rv ATCC 27294. It counts as functional.
Data set [7] deals with Mycobacterium tuberculosis. Kind of data set: Potency index, ratio of ciprofloxacin MIC to test compound MIC against Mycobacterium tuberculosis H37Rv ATCC 27294. It is filed as functional.
The test system of a further data set is Escherichia coli. The data set can be described thus: Antibacterial activity against Escherichia coli incubated for 24 hrs by agar dilution method. It is filed as functional. (In agar dilution the substance is mixed into plates at graded concentrations.)
The next data set relates to Staphylococcus aureus. The data set can be described thus: Antibacterial activity against Staphylococcus aureus incubated for 24 hrs by agar dilution method. It counts as functional.
For another data set, the system named is Pseudomonas aeruginosa. The data set can be described thus: Antibacterial activity against Pseudomonas aeruginosa incubated for 24 hrs by agar dilution method. It counts as functional.
The subject of data set [8] is Mycobacterium tuberculosis. The data set can be described thus: Potency index, ratio of streptomycin MIC to test compound MIC against Mycobacterium tuberculosis H37Rv ATCC 27294. It counts as functional.
The next data set concerns Vero. The data set can be described thus: Cytotoxicity against African green monkey Vero cells assessed as reduction in cell viability incubated for 72 hrs by MTT assay. It is filed as cell-based. As to conditions: Chlorocebus sabaeus.
A short description of data set [9]: Cytotoxicity against African green monkey Vero cells assessed as cell growth inhibition at 6.25 ug/ml incubated for 72 hrs by MTT assay relative to control. To be noted: chlorocebus sabaeus, read-out: GI. It is filed as cell-based. A general note: Tetrazolium dyes change colour on reduction, which living cells bring about.
The nature of data set [10]: Selectivity index, ratio of IC50 for African green monkey Vero cells to MIC for Mycobacterium tuberculosis H37Rv ATCC 27294. It counts as toxicity. To be noted: read-out: Selectivity Index.

In general, MIC refers to the least concentration at which growth counts as inhibited. As a reminder, the IC50 is the concentration at which inhibition is half-maximal.

Converted amounts (≈) assume the structure as drawn. Where only a bound is given, the exact number is not on record here.

For the molecule `CSc1ccc2c(c1)N(CCC1CCCCN1C)c1ccccc1S2` (centres undefined) [THIORIDAZINE], the Activity in data set [1], in data set [2], in data set [3] and in data set [4] was greater than 1 log10CFU in each case.

As for `N#Cc1ccc(Cn2cc(CN3c4ccc(/C=N/NC(=O)c5ccc([N+](=O)[O-])cc5)cc4Sc4ccc(C(F)(F)F)cc43)nn2)cc1`, the minimum inhibitory concentration (MIC) came out at 2.44 µM in [5], 50 µg/mL (≈ 76.4 µM) in the data set on Escherichia coli, 25 µg/mL (≈ 38.2 µM) against Staphylococcus aureus and 50 µg/mL (≈ 76.4 µM) in the data set on Pseudomonas aeruginosa. For the same molecule, the Ratio in data set [6] was 2; in data set [7] it was 4; in data set [8], 4. The IC50 with Vero amounted to 1130 µg/mL (≈ 1720 µM). The inhibition at 72 h, 6.25 ug/ml in data set [9] turned out to be 8.91%. Further, the selectivity ratio in data set [10] was 126.

Regarding `N#Cc1ccc(Cn2cc(CN3c4ccc(/C=N/NC(=O)c5ccc(F)cc5)cc4Sc4ccc(C(F)(F)F)cc43)nn2)cc1`, the MIC in data set [5] was 2.55 µM; against Escherichia coli, 12.5 µg/mL (≈ 19.9 µM); against Staphylococcus aureus, 6.25 µg/mL (≈ 9.96 µM); with Pseudomonas aeruginosa, 12.5 µg/mL (≈ 19.9 µM). Further, the Ratio in data set [6] turned out to be 2; in [7], 4; in data set [8], 4. Besides, the IC50 with Vero stood at 647 µg/mL (≈ 1030 µM). Besides, in data set [9], the inhibition at 72 h, 6.25 ug/ml came out at 8.42%. Further, in [10], the selectivity ratio was 76.8.

Consider `Cc1ccc(C(=O)N/N=C/c2ccc3c(c2)Sc2ccc(C(F)(F)F)cc2N3Cc2cn(Cc3ccc(C#N)cc3)nn2)cc1`, for which the MIC in data set [5] is 2.56 µM; in the data set on Escherichia coli, 50 µg/mL (≈ 80.2 µM); with Staphylococcus aureus, 25 µg/mL (≈ 40.1 µM); against Pseudomonas aeruginosa, 50 µg/mL (≈ 80.2 µM). For the same molecule, the Ratio is on record as 2 in data set [6], 4 in [7] and 4 in data set [8]. In addition, the IC50 in the data set on Vero came to 1570 µg/mL (≈ 2510 µM). Further, in [9], the inhibition at 72 h, 6.25 ug/ml was 6.28%. Further, in data set [10], the selectivity ratio amounted to 250.

Turning to `N#Cc1ccc(Cn2cc(CN3c4ccc(/C=N/NC(=O)c5cnccn5)cc4Sc4ccc(C(F)(F)F)cc43)nn2)cc1`, the minimum inhibitory concentration (MIC) is 2.61 µM in [5], 50 µg/mL (≈ 81.8 µM) against Escherichia coli, 50 µg/mL (≈ 81.8 µM) against Staphylococcus aureus and 100 µg/mL (≈ 164 µM) in the data set on Pseudomonas aeruginosa. Further, the Ratio is 2 in [6], 4 in data set [7] and 4 in data set [8]. The IC50 with Vero was 2110 µg/mL (≈ 3450 µM). The inhibition at 72 h, 6.25 ug/ml in data set [9] came out at 11.6%. The selectivity ratio in data set [10] was found to be 183.

In the case of `N#Cc1ccc(Cn2cc(CN3c4ccc(/C=N/NC(=O)c5cccnc5)cc4Sc4ccc(C(F)(F)F)cc43)nn2)cc1`, the MIC in data set [5] came to 2.62 µM; against Escherichia coli, 100 µg/mL (≈ 164 µM); in the data set with Staphylococcus aureus, 50 µg/mL (≈ 81.9 µM); with Pseudomonas aeruginosa it was 100 µg/mL (≈ 164 µM). The Ratio in [6] worked out at 2; in data set [7], 4; in data set [8], 4. Further, in the data set on Vero, the IC50 was 845 µg/mL (≈ 1380 µM). In [9], the inhibition at 72 h, 6.25 ug/ml was 7.32%. In addition, in data set [10], the selectivity ratio stood at 115.

`N#Cc1ccc(Cn2cc(CN3c4ccccc4Sc4cc(/C=N/NC(=O)c5ccc(F)cc5)ccc43)nn2)cc1`: the MIC came to 2.85 µM in [5], 12.5 µg/mL (≈ 22.3 µM) against Escherichia coli, 6.25 µg/mL (≈ 11.2 µM) against Staphylococcus aureus and 12.5 µg/mL (≈ 22.3 µM) against Pseudomonas aeruginosa. The Ratio amounted to 2 in [6], 4 in data set [7] and 4 in data set [8]. In the data set with Vero, the IC50 worked out at 758 µg/mL (≈ 1350 µM). Moreover, the inhibition at 72 h, 6.25 ug/ml in data set [9] came to 11.4%. The selectivity ratio in data set [10] was 66.3.

For `N#Cc1ccc(Cn2cc(CN3c4ccccc4Sc4ccccc43)nn2)cc1`, the minimum inhibitory concentration (MIC) in [5] stood at 1.6 µg/mL; in the data set on Escherichia coli it was 12.5 µg/mL (≈ 31.6 µM); against Staphylococcus aureus, 6.25 µg/mL (≈ 15.8 µM); with Pseudomonas aeruginosa it was 12.5 µg/mL (≈ 31.6 µM). Further, the Ratio in data set [6] was 2; in [7] it was 4; in [8], 4. In addition, the IC50 in the data set on Vero worked out at 1320 µg/mL (≈ 3340 µM). Besides, the inhibition at 72 h, 6.25 ug/ml in data set [9] came to 11.1%. Further, the selectivity ratio in [10] was found to be 119.

As to `O=[N+]([O-])c1ccc(Cn2cc(CN3c4ccccc4Sc4ccccc43)nn2)cc1`, the MIC in data set [5] stood at 1.6 µg/mL; in the data set on Escherichia coli, 50 µg/mL (≈ 120 µM); with Staphylococcus aureus, 50 µg/mL (≈ 120 µM); against Pseudomonas aeruginosa it was 100 µg/mL (≈ 241 µM). Further, the Ratio in [6] amounted to 2; in data set [7], 4; in data set [8] it was 4. Also, the IC50 in the data set with Vero amounted to 484 µg/mL (≈ 1160 µM). For the same molecule, the inhibition at 72 h, 6.25 ug/ml in [9] came to 11.4%. For the same molecule, the selectivity ratio in data set [10] turned out to be 42.5.

As for `N#Cc1ccc(Cn2cc(CN3c4ccc(/C=N/NC(=O)c5ccncc5)cc4Sc4ccc(C(F)(F)F)cc43)nn2)cc1`, the MIC is 2.62 µM in [5], 50 µg/mL (≈ 81.9 µM) with Escherichia coli, 50 µg/mL (≈ 81.9 µM) against Staphylococcus aureus and 100 µg/mL (≈ 164 µM) against Pseudomonas aeruginosa. The Ratio in [6] is listed as 2; in data set [7], 4; in data set [8] it was 4. The concentration for half-maximal inhibition (IC50) in the data set with Vero was determined as 1480 µg/mL (≈ 2420 µM). Further, in [9], the inhibition at 72 h, 6.25 ug/ml worked out at 7.14%. In addition, in data set [10], the selectivity ratio came to 207.
